Data from patent US8435970B2 (priority 2006, dated 2013).
In brackets after ≈: the same amount, converted by molar mass. Where a name gives a salt, the structure may show the parent alone.

Legend:
[1] = test system: Aurora (Histone H3 phosphorylation); test: Western blotting assay of downstream substrate phosphorylation; assay type: cell-based; conditions: western blot; concentration of inhibition
[2] = Gravimetric vapour sorption (GVS); assay type: physicochemical; conditions: for hygroscopic behaviour (GVS isotherm): 0 to 95% RH, 25° C.
Description: E. Gravimetric Vapour Sorption (GVS):
The sample size was ca. 10-25 mg. […] The sample was loaded and unloaded at room humidity and temperature (ca. 40% RH, 25° C.) and analysed afterwards by XRPD (using a Bruker AXS C2 GADDS system).

OVCAR-3 tumour cells = conditions: concentrations of 50 and 100 microM; PKB amplified; cited from earlier work
[3] = test system: primary human mammary epithelial cells; test: In vitro studies with normal cells; conditions: 24 h compound treatment, cf. tumor cells
[4] = test system: human tumour derived cell lines engrafted sub-cutaneously; conditions: nude mice, sub-cutaneous human tumour xenografts
[5] = citrate buffer, pH 4.5, aqueous buffer

## O=C(Nc1c[nH]nc1-c1nc2cc(CN3CCOCC3)ccc2[nH]1)NC1CC1
[1]
  Inhibition of Histone H3 phosphorylation (Aurora): 10 to 30 nM

## O=C(Nc1c[nH]nc1-c1nc2cc(CN3CCOCC3)ccc2[nH]1)NC1CC1 [L-lactate salt]
[2]
  hygroscopic behaviour (GVS isotherm): does not display hygroscopic behaviour

## O=S(=O)(NCCNCC=C(c1ccccc1)c1ccccc1)c1cccc2cnccc12 [NL-71-101]
OVCAR-3 tumour cells
  apoptosis induction: induced apoptosis

## O=C(Nc1c[nH]nc1-c1nc2cc(CN3CCOCC3)ccc2[nH]1)NC1CC1 [compound of formula (I)]
[3]
  effect on normal checkpoint competent cells: reversible G2/M arrest
[4]
  anti-tumour action as a single agent: anti-tumour action

## O=C(Nc1c[nH]nc1-c1nc2cc(CN3CCOCC3)ccc2[nH]1)NC1CC1 [free base]
[2]; listed as Free Base
  hygroscopic behaviour (GVS isotherm): hygroscopic
[2]; GVS
  sample weight difference between 0% R.H and 95% R.H.: approximately 9%
[5]
  solubility: ~80 mg/mL (≈ 210 mM)
